≈ marks a conversion by molar mass, not a printed value. Where two headings read alike, the source gives them in different places. *1 amine or outer side, *2 acyl side, *3 side chain or, on linkers, in order; H or OH if unused. Where a SMILES comes first, the peptide text is derived from it. Bridges are numbered along the chain shown (N, C = ends). [ ]: non-standard residue; d: D form. The star is where a group is joined. GABA(3S-Bn) = O=C(C[C@@H](CN[*:1])Cc1ccccc1)[*:2]; X9 = CC(C)c1cccc([C@H](CN)CC(=O)*)c1; X16 = NC[C@H](CC(=O)*)Cc1cccc(Cl)c1; X4 = NC[C@@H](CC(=O)*)c1ccc(Cl)cc1; Dab = NCC[C@H](N)C(=O)O; Dap = NC[C@H](N)C(=O)O
Key:
[1] = test system: A. baumannii NCTC 13424; assay type: cell-based
Procedure: (§1) The inoculum was prepared by making a direct suspension of isolated colonies (selected from an 18-24 hour Mueller-Hinton agar plate) adjusted to the 0.5 McFarland standard. […] The assays were performed in duplicate. […] The MIC values are quoted in μg/mL.

[2] = test system: P. aeruginosa ATCC 27853; assay type: cell-based
Procedure: as §1

[3] = test system: A. baumannii ATCC BAA-747; assay type: cell-based
Procedure: as §1

[4] = test system: E. coli ATCC 25922; assay type: cell-based
Procedure: as §1

[5] = test system: K. pneumoniae ATCC 13822; assay type: cell-based
Procedure: as §1

[6] = test system: E. coli CA58; assay type: cell-based
Procedure: (§2) The inoculum was prepared by making a direct suspension of isolated colonies (selected from an 18-24 hour Mueller-Hinton agar plate) adjusted to the 0.5 McFarland standard. […] The assays were performed in duplicate. […] Several of the compounds were subjected to multiple tests, and where this is the case, the MIC presented is the median value obtained. The MIC values are quoted in μg/mL.

[7] = test system: K. pneumoniae CA64; assay type: cell-based
Procedure: as §2

[8] = test system: P. aeruginosa CCUG 59347; assay type: cell-based
Procedure: as §2

[9] = Kidney drug level after subcutaneous dose in mouse; assay type: in vivo
Procedure: Four hours after dosing the animals were euthanised and kidneys removed, trimmed of fat and connective tissue, weighed and immediately snap-frozen. After thawing at room temperature, pairs of kidneys from each animal were placed in 2 mL conical tubes containing pre-weighed ceria-stabilised zirconium oxide beads. […] After 10 min. centrifugation at 13,000 rpm and 6° C., 200 μl of the supernatants were transferred into glass inserts and analysed by LC-MS-MS.

[10] = test system: HK-2 cells; test: In vitro renal cell toxicity assay (HK-2); assay type: cell-based
Procedure: The in vitro renal cell toxicity assay was performed according to the following protocol. […] Cells were seeded at 7,500 cells per well in 96-well plates and allowed to adhere overnight. […] Water and DMSO levels were kept constant at 5% and 0.5% respectively. The test compounds were incubated with cells for 24 h at 37° C. 5% CO2 in a humidified atmosphere. […] Media only background values were subtracted before the data was analysed using GraphPad Prism. Individual values were normalised to the vehicle control wells for each compound. Compound concentration values were plotted as log values to enable a dose-response curve to be fitted. The bottom of the curve was constrained to zero and IC50 values were determined. IC50 values are expressed relative to that for PMB in the same experiment. Where multiple determinations have been made, median values are presented.

[11] = cation-adjusted Mueller-Hinton Broth, 18-20 h, 35° C.

SMILES	MIC A. baumannii NCTC 13424 [1, 11] [µg/mL]	MIC A. baumannii ATCC BAA-747 [3, 11] [µg/mL]	MIC K. pneumoniae ATCC 13822 [5, 11] [µg/mL]	MIC E. coli CA58 [6, 11] [µg/mL]	MIC K. pneumoniae CA64 [7, 11] [µg/mL]	MIC P. aeruginosa CCUG 59347 [8, 11] [µg/mL]	MIC A. baumannii NCTC 13424 ([1]; NCTC 13424) [µg/mL]	MIC A. baumannii ATCC BAA-747 ([3]; ATCC BAA-747) [µg/mL]	MIC E. coli CA58 ([6]; CA58) [µg/mL]	MIC K. pneumoniae CA64 ([7]; CA64) [µg/mL]	MIC P. aeruginosa CCUG 59347 ([8]; CCUG 59347) [µg/mL]	further results
CC(C)C[C@H]1NC(=O)[C@H](CCN)NC(=O)[C@@H](NC(=O)[C@H](CN)NC(=O)[C@@H](NC(=O)C[C@@H](CN)c2cccc(C(C)C)c2)[C@@H](C)O)CCNC(=O)[C@H]([C@@H](C)O)NC(=O)[C@H](CCN)NC(=O)[C@H](CCN)NC(=O)[C@H]([C@@H](C)O)NC1=O [Example 20, (R)-4-amino-3-(3- isopropylphenyl) butanoyl-Thr-Dap- Cyclo[Dab-Dab-DLeu- Thr-Dab-Dab-Thr]] (X9-T[Dap][Dab][Dab][dL]T[Dab][Dab]T; lactam 3-C)	1 (≈ 0.904 µM)	2 (≈ 1.81 µM)	2 (≈ 1.81 µM)	64 (≈ 57.8 µM)	64 (≈ 57.8 µM)	2 (≈ 1.81 µM)						MIC P. aeruginosa ATCC 27853 [2, 11]: 0.5 µg/mL (≈ 0.452 µM); MIC E. coli ATCC 25922 [4, 11]: 1 µg/mL (≈ 0.904 µM)
CC(C)C[C@@H]1NC(=O)[C@@H](Cc2ccccc2)NC(=O)[C@H](CCN)NC(=O)[C@@H](NC(=O)[C@H](CN)NC(=O)[C@@H](NC(=O)C[C@H](CN)c2ccc(Cl)cc2)[C@@H](C)O)CCNC(=O)[C@H]([C@@H](C)O)NC(=O)[C@H](CCN)NC(=O)[C@H](CCN)NC1=O [Example 1, (S)-4-amino-3-(4- chlorophenyl) butanoyl- Thr- Dap-Cyclo[Dab- Dab-DPhe-Leu-Dab- Dab-Thr]] (X4-T[Dap][Dab][Dab][dF]L[Dab][Dab]T; lactam 3-C)							0.06 (≈ 0.0524 µM)	0.06 (≈ 0.0524 µM)	4 (≈ 3.49 µM)	8 (≈ 6.99 µM)	0.25 (≈ 0.218 µM)	MIC P. aeruginosa ATCC 27853 ([2]; ATCC 27853): 0.06 µg/mL (≈ 0.0524 µM); 4 hr kidney level/rel. cytotoxicity ([9]; mouse, in vivo): 30; Drug Level in Kidney (μg/g kidney, 4 h) ([9]; mouse, in vivo, sc, 17.2 mg/kg): 268 μg/g kidney; tissue level at time at 4 h ([9]; mouse, in vivo, sc, 17.2 mg/kg): 267000 ng/g; HK-2 rel to PMB [10]: 8.8
CC(C)C[C@@H]1NC(=O)[C@@H](Cc2ccccc2)NC(=O)[C@H](CCN)NC(=O)[C@@H](NC(=O)[C@H](CN)NC(=O)[C@@H](NC(=O)C[C@@H](CN)Cc2cccc(Cl)c2)[C@@H](C)O)CCNC(=O)[C@H]([C@@H](C)O)NC(=O)[C@H](CCN)NC(=O)[C@H](CCN)NC1=O [Example 12, (S)-4-amino-3-(3- chlorobenzyl)butanoyl- Thr-Dap-Cyclo[Dab- Dab-DPhe-Leu-Dab- Dab-Thr]. Isomer 2] (X16-T[Dap][Dab][Dab][dF]L[Dab][Dab]T; lactam 3-C)							0.25 (≈ 0.216 µM)	0.25 (≈ 0.216 µM)	4 (≈ 3.45 µM)	8 (≈ 6.9 µM)	0.5 (≈ 0.431 µM)	MIC E. coli ATCC 25922 ([4]; ATCC 25922): 0.5 µg/mL (≈ 0.431 µM); MIC K. pneumoniae ATCC 13822 ([5]; ATCC 13822): 0.5 µg/mL (≈ 0.431 µM)
CC(C)C[C@@H]1NC(=O)[C@@H](Cc2ccccc2)NC(=O)[C@H](CCN)NC(=O)[C@@H](NC(=O)[C@H](CN)NC(=O)[C@@H](NC(=O)C[C@@H](CN)Cc2ccccc2)[C@@H](C)O)CCNC(=O)[C@H]([C@@H](C)O)NC(=O)[C@H](CCN)NC(=O)[C@H](CCN)NC1=O [Example 10, (S)-4-amino-3- benzylbutanoyl-Thr- Dap-Cyclo[Dab-Dab- DPhe-Leu-Dab-Dab- Thr]. Isomer 2] ({GABA(3S-Bn)}-T[Dap][Dab][Dab][dF]L[Dab][Dab]T; lactam 3-C)	0.25 (≈ 0.222 µM)	0.25 (≈ 0.222 µM)	0.5 (≈ 0.445 µM)	8 (≈ 7.12 µM)	16 (≈ 14.2 µM)	0.25 (≈ 0.222 µM)						Drug level in kidney ([9]; mouse, 17.2 mg/kg sc, 4 hours): 346 µg/g; tissue level at time at 4 h ([9]; mouse, in vivo, mice, 17.2 mg/kg free base sc, 4 h, read-out: 4 hr kidney level): 346000 ng/g; 4 hr kidney level/rel. cytotoxicity ([9]; ratio of 4 h kidney level to HK-2 IC50 relative to PMB): 43; HK-2 rel to PMB ([10]; IC50 relative to PMB in the same experiment, 24 h): 8
